Laboratory results taken from PubChem BioAssay (NCI).
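Where inhibition never reached the appropriate level, the endpoint shown equals the highest concentration tested. Otherwise, values were interpolated linearly from a five-concentration, 48-hour dose response in 96-well plates. Here, GI50 denotes the concentration required for 50% inhibition of growth. TGI: concentration producing complete growth inhibition.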

How the values were obtained:
Assay in all cases: growth of human tumour cells (NCI), 48 h
NCI-H460 lung = test system: NCI-H460 lung
K-562 leukemia = test system: K-562 leukemia
HCC-2998 colon = test system: HCC-2998 colon
OVCAR-3 ovarian = test system: OVCAR-3 ovarian
SK-MEL-28 melanoma = test system: SK-MEL-28 melanoma
HL-60(TB) leukemia = test system: HL-60(TB) leukemia
NCI-H522 lung = test system: NCI-H522 lung
CAKI-1 renal = test system: CAKI-1 renal
CCRF-CEM leukemia = test system: CCRF-CEM leukemia
SK-MEL-2 melanoma = test system: SK-MEL-2 melanoma
SF-268 CNS = test system: SF-268 CNS
DU-145 prostate = test system: DU-145 prostate
MCF7 breast = test system: MCF7 breast
MDA-MB-231 breast = test system: MDA-MB-231 breast
SF-295 CNS = test system: SF-295 CNS
KM12 colon = test system: KM12 colon
MALME-3M melanoma = test system: MALME-3M melanoma
HOP-62 NSCLC = test system: HOP-62 NSCLC
HT29 colon = test system: HT29 colon
COLO 205 colon = test system: COLO 205 colon
A549 NSCLC = test system: A549 NSCLC
A498 renal = test system: A498 renal
TK-10 renal = test system: TK-10 renal
LOX IMVI melanoma = test system: LOX IMVI melanoma
UACC-257 melanoma = test system: UACC-257 melanoma
IGROV1 ovarian = test system: IGROV1 ovarian
M14 melanoma = test system: M14 melanoma
NCI-H23 lung = test system: NCI-H23 lung
786-0 renal = test system: 786-0 renal
NCI-H226 lung = test system: NCI-H226 lung
OVCAR-8 ovarian = test system: OVCAR-8 ovarian
MDA-MB-435 = test system: MDA-MB-435
SW-620 colon = test system: SW-620 colon
NCI/ADR-RES ovarian = test system: NCI/ADR-RES ovarian
U251 CNS = test system: U251 CNS
SN12C renal = test system: SN12C renal
RPMI-8226 leukemia = test system: RPMI-8226 leukemia
UACC-62 melanoma = test system: UACC-62 melanoma
SK-MEL-5 melanoma = test system: SK-MEL-5 melanoma
T-47D breast = test system: T-47D breast
RXF 393 renal = test system: RXF 393 renal
EKVX NSCLC = test system: EKVX NSCLC
HCT-15 colon = test system: HCT-15 colon
OVCAR-5 ovarian = test system: OVCAR-5 ovarian
SF-539 CNS = test system: SF-539 CNS
SK-OV-3 ovarian = test system: SK-OV-3 ovarian
SNB-19 CNS = test system: SNB-19 CNS
HS 578T breast = test system: HS 578T breast
ACHN renal = test system: ACHN renal
OVCAR-4 ovarian = test system: OVCAR-4 ovarian
HCT-116 colon = test system: HCT-116 colon
SR leukemia = test system: SR leukemia
PC-3 prostate = test system: PC-3 prostate
MOLT-4 leukemia = test system: MOLT-4 leukemia
SNB-75 CNS = test system: SNB-75 CNS
UO-31 renal = test system: UO-31 renal
BT-549 breast = test system: BT-549 breast

SMILES: COc1ccc(/C=C/C(=O)c2c(O)c(C)c(O)c3c2OC2=CC(O)=C(C(C)=O)C(=O)[C@]23C)cc1
- GI50 (NCI-H460 lung): 898 nM
- TGI (NCI-H460 lung): 3710 nM
- GI50 (K-562 leukemia): 627 nM
- TGI (K-562 leukemia): > 17500 nM
- GI50 (HCC-2998 colon): 1960 nM
- TGI (HCC-2998 colon): 5120 nM
- GI50 (OVCAR-3 ovarian): 649 nM
- TGI (OVCAR-3 ovarian): 2830 nM
- GI50 (SK-MEL-28 melanoma): 1150 nM
- TGI (SK-MEL-28 melanoma): 4720 nM
- GI50 (HL-60(TB) leukemia): 603 nM
- TGI (HL-60(TB) leukemia): 5850 nM
- GI50 (NCI-H522 lung): 511 nM
- TGI (NCI-H522 lung): 2330 nM
- GI50 (CAKI-1 renal): 694 nM
- TGI (CAKI-1 renal): 8190 nM
- GI50 (CCRF-CEM leukemia): 702 nM
- TGI (CCRF-CEM leukemia): 9970 nM
- GI50 (SK-MEL-2 melanoma): 961 nM
- TGI (SK-MEL-2 melanoma): 3720 nM
- GI50 (SF-268 CNS): 871 nM
- TGI (SF-268 CNS): 4720 nM
- GI50 (DU-145 prostate): 1230 nM
- TGI (DU-145 prostate): 7840 nM
- GI50 (MCF7 breast): 610 nM
- TGI (MCF7 breast): 3800 nM
- GI50 (MDA-MB-231 breast): 1040 nM
- TGI (MDA-MB-231 breast): 5660 nM
- GI50 (SF-295 CNS): 821 nM
- TGI (SF-295 CNS): 5110 nM
- GI50 (KM12 colon): 1040 nM
- TGI (KM12 colon): 5900 nM
- GI50 (MALME-3M melanoma): 2230 nM
- TGI (MALME-3M melanoma): 5220 nM
- GI50 (HOP-62 NSCLC): 1920 nM
- TGI (HOP-62 NSCLC): 6130 nM
- GI50 (HT29 colon): 860 nM
- TGI (HT29 colon): 4330 nM
- GI50 (COLO 205 colon): 1930 nM
- TGI (COLO 205 colon): 4540 nM
- GI50 (A549 NSCLC): 1330 nM
- TGI (A549 NSCLC): 7260 nM
- GI50 (A498 renal): 770 nM
- TGI (A498 renal): 2980 nM
- GI50 (TK-10 renal): 597 nM
- TGI (TK-10 renal): 5100 nM
- GI50 (LOX IMVI melanoma): 1800 nM
- TGI (LOX IMVI melanoma): 4570 nM
- GI50 (UACC-257 melanoma): 3110 nM
- TGI (UACC-257 melanoma): 10000 nM
- GI50 (IGROV1 ovarian): 932 nM
- TGI (IGROV1 ovarian): 8020 nM
- GI50 (M14 melanoma): 925 nM
- TGI (M14 melanoma): 4820 nM
- GI50 (NCI-H23 lung): 598 nM
- TGI (NCI-H23 lung): 3130 nM
- GI50 (786-0 renal): 2440 nM
- TGI (786-0 renal): 7590 nM
- GI50 (NCI-H226 lung): 2610 nM
- TGI (NCI-H226 lung): 6750 nM
- GI50 (OVCAR-8 ovarian): 631 nM
- TGI (OVCAR-8 ovarian): 2350 nM
- GI50 (MDA-MB-435): 1920 nM
- TGI (MDA-MB-435): 4110 nM
- GI50 (SW-620 colon): 659 nM
- TGI (SW-620 colon): 3790 nM
- GI50 (NCI/ADR-RES ovarian): 956 nM
- TGI (NCI/ADR-RES ovarian): 4580 nM
- GI50 (U251 CNS): 801 nM
- TGI (U251 CNS): 4210 nM
- GI50 (SN12C renal): 603 nM
- TGI (SN12C renal): 2480 nM
- GI50 (RPMI-8226 leukemia): 596 nM
- TGI (RPMI-8226 leukemia): 1880 nM
- GI50 (UACC-62 melanoma): 891 nM
- TGI (UACC-62 melanoma): 3480 nM
- GI50 (SK-MEL-5 melanoma): 1290 nM
- TGI (SK-MEL-5 melanoma): 3610 nM
- GI50 (T-47D breast): 521 nM
- TGI (T-47D breast): 2660 nM
- GI50 (RXF 393 renal): 1960 nM
- TGI (RXF 393 renal): 4990 nM
- GI50 (EKVX NSCLC): 676 nM
- TGI (EKVX NSCLC): 5320 nM
- GI50 (HCT-15 colon): 706 nM
- TGI (HCT-15 colon): 3480 nM
- GI50 (OVCAR-5 ovarian): 4200 nM
- TGI (OVCAR-5 ovarian): > 17500 nM
- GI50 (SF-539 CNS): 2710 nM
- TGI (SF-539 CNS): 6440 nM
- GI50 (SK-OV-3 ovarian): 1790 nM
- TGI (SK-OV-3 ovarian): 7050 nM
- GI50 (SNB-19 CNS): 1560 nM
- TGI (SNB-19 CNS): 7800 nM
- GI50 (HS 578T breast): 2900 nM
- TGI (HS 578T breast): 8760 nM
- GI50 (ACHN renal): 1030 nM
- TGI (ACHN renal): 10400 nM
- GI50 (OVCAR-4 ovarian): 2210 nM
- TGI (OVCAR-4 ovarian): 10000 nM
- GI50 (HCT-116 colon): 610 nM
- TGI (HCT-116 colon): 2490 nM
- GI50 (SR leukemia): 1170 nM
- TGI (SR leukemia): > 17500 nM
- GI50 (PC-3 prostate): 611 nM
- TGI (PC-3 prostate): 2340 nM
- GI50 (MOLT-4 leukemia): 698 nM
- TGI (MOLT-4 leukemia): > 17500 nM
- GI50 (SNB-75 CNS): 2800 nM
- TGI (SNB-75 CNS): 5950 nM
- GI50 (UO-31 renal): 3450 nM
- TGI (UO-31 renal): 10600 nM
- GI50 (BT-549 breast): 931 nM
- TGI (BT-549 breast): 5260 nM
